# Experimental data published in patent US11149071B2, “Fusion protein Slit2D2(C386S)-HSA and use thereof in prevention and/or treatment of lung inflammation” (Asclepius (Suzhou) Technology Company Group Co., Ltd., priority 2017, dated 2021).
# Legend:
# mouse models of asthma = mouse models of asthma (ovalbumin sensitization and aerosol challenge); BALF cell counts, Penh, BALF cytokines; assay type: in vivo, BALB/c mice
# Procedure: On the first day and the 14th day of the experiment, the asthma models were sensitized by intraperitoneal injection, and the asthma group was given sensitization solution containing 20 μg of ovalbumin and 2 mg of alum suspension each time.
# 3.3.2 On the days 28, 29 and 30, the mice of 2-4 groups were stimulated with aerosol, which included dissolving 100 mg OVA in 10 ml PBS and adding 5 μl Triton X-100, and atomized by atomizing inhalation facility (Buxco) for 30 minutes, and then the nebulizer was turned off. Finally, the mice were kept in the inhalation box for additional 7 minutes, and following by being taken out. The negative control mice were exposed in aerosolized PBS for 30 minutes.
# Group 1 (PBS control group) were injected intraperitoneally with PBS at 2 hours before PBS sensitization on the days 28, 29 and 30. Group 2 (OVA control group) were injected intraperitoneally with PBS at 2 hours before OVA sensitization on the days 28, 29 and 30. Group 3 were injected intraperitoneally with ZD018 at 2 hours before OVA sensitization on the days 28, 29 and 30. Group 4 were intragastrically administrated with dexamethasone at 2 hours before OVA sensitization on the days 28, 29 and 30.
# On the 31st (24 hours after the last challenge), the Penh of mice were detected with a Buxco mouse non-invasive pulmonary function instrument. The change of Penh was determined after atomization stimulating of 300 μl doubling concentration of methacholine (Mch). The stimulating concentrations from low to high were 0, 0.78, 1.56, 3.125, 6.25, 12.5, 25 and 50 g/L, respectively. The mean value of Penh was recorded at each stimulating concentration level of Mch. The Penh value at each stimulating concentration of Mch was converted to a percentage of the Penh value at the time of the stimulating normal saline (The Penh value stimulated by Mch/The Penh value stimulated by normal saline, 100%), and represented by penh %, which was used as an evaluation index for mice airway response.
# 3.5 The observation of airway inflammation: the cytological examination of bronchoalveolar lavage and bronchoalveolar lavage fluid (BALF).
# 3.6 IL-13 and IL-5 cytokine levels in bronchoalveolar lavage fluid (BALF) were tested with Elisa Kit (R&D, USA).
# [1] = system: lipopolysaccharide-induced lung injury; experiment: rat model of acute lung injury induced by airway infusion of LPS; differential cell counts in BALF; assay type: in vivo, Wistar rat
# Procedure: Acute lung injury (ALI) is a systemic uncontrolled inflammatory response caused by various direct and indirect injury factors, accompanied by alveolar epithelial cells and capillary endothelial cell injury, its pathogenesis is still unclear, and there is still no effective treatment means. A rat model with airway infusion of lipopolysaccharide (LPS) is a commonly used animal model. In this study, airway infusion of LPS induced acute lung injury in rats. The animals were injected compounds via tail vein. After four hours, lung lavage and bronchoalveolar lavage fluid were collected, and differential cell were counts and measured to represent the efficacy of test compounds in preventing lipopolysaccharide-induced lung injury.
# Except for group 1, all other groups were received pulmonary perfusion of lipopolysaccharide. Animals were anesthetized by 3-5% isoflurane, and 100 μl of LPS solution (1 mg/ml) was introduced into rat trachea with a micro-atomizer intubation, and after 4 hours, the animals were killed with chloral hydrate (750 mg/kg). The lungs were gently perfused three times in situ with 4 ml of PBS+1% albumin. After lavage, bronchoalveolar lavage fluid (BALF) was preserved in ice, and then the number of eosinophils (EOS), macrophages (Mac), neutrophils (Neu), lymphocytes (Lym) and the total number of cells were measured.
# [2] = ZD018 1 mg/kg i.p. 2 hours before OVA challenge on days 28, 29 and 30 (FIG. 6)
# [3] = test doses of 5 mg/kg, 1 mg/kg and 0.2 mg/kg i.v. 3 hours before LPS perfusion, BALF 4 hours after LPS, compared with the model group (FIG. 4)
substance,measurement,setting,value
"Slit2D2(C386S)-HSA: recombinant fusion protein of Slit2 D2 domain (cysteine at position 386 mutated to serine) and HSA, SEQ ID NO: 2",accumulation of eosinophils in alveolar fluid (BALF),"mouse models of asthma; ZD018 1 mg/kg i.p. 2 hours before OVA challenge on days 28, 29 and 30 (FIG. 5)",significantly inhibit
same,accumulation of lymphocytes in alveolar fluid (BALF),mouse models of asthma; [2],inhibit
same,accumulation of neutrophils in alveolar fluid (BALF),mouse models of asthma; [2],inhibit
same,IL-5 cytokine level in bronchoalveolar lavage fluid (BALF),"mouse models of asthma; ZD018 1 mg/kg i.p., Elisa Kit (FIG. 8)",inhibit
same,IL-13 cytokine level in bronchoalveolar lavage fluid (BALF),"mouse models of asthma; ZD018 1 mg/kg i.p., Elisa Kit (FIG. 9)",inhibit
same,enhanced pause (Penh) index stimulated by methacholine (Mch),"mouse models of asthma; ZD018 1 mg/kg i.p., day 31, 24 hours after the last challenge, Mch 0-50 g/L, compared with control group G2 (FIG. 7)",effectively inhibit
same,efficacy compared with Slit2D2-HSA recombinant protein,[1]; both at 5 mg/kg dose i.v. 3 hours before LPS perfusion (FIG. 4),superior to Slit2D2-HSA recombinant protein
same,increase of cell number (total number of cells in BALF),[1]; [3],significantly inhibited
same,number of neutrophils in bronchoalveolar lavage fluid,[1]; [3],significantly controlled
